Data reported in PubChem BioAssay AID248 (DTP/NCI, 2004).
Where “and” joins values, the source holds several entries; their conditions need not be identical. Identical values can stand only once. Toxic doses and inconclusive results are not listed. No stated cut-off is given here; in the data, active means T/C of 150% or more; inactive means T/C below 125%.

Test system: L1210 leukemia ip in BDF1 mice, survival T/C
Experiment: NCI In Vivo Anticancer Drug Screen. Data for tumor model L1210 Leukemia (intraperitoneal) in B6D2F1 (BDF1) mice
Details: endpoint: mean survival time, higher = longer survival
In short: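 Read-out is survival time, reported as the treated-group measurement over the vehicle-control measurement.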

[1] = dose: 12.5 mg/kg/injection, schedule: Q01DX009 (ip), vehicle: saline with Tween-80
[2] = dose: 25.0 mg/kg/injection, schedule: Q01DX009 (ip), vehicle: saline with Tween-80
[3] = dose: 50.0 mg/kg/injection, schedule: Q01DX009 (ip), vehicle: saline with Tween-80
[4] = dose: 100.0 mg/kg/injection, schedule: Q01DX009 (ip), vehicle: saline with Tween-80
[5] = dose: 200.0 mg/kg/injection, schedule: Q01DX009 (ip), vehicle: saline with Tween-80
[6] = dose: 100.0 mg/kg/injection, schedule: Q01DX009 (ip), vehicle: Klucel (hydroxypropylcellulose) (HPC)
[7] = dose: 200.0 mg/kg/injection, schedule: Q01DX009 (ip), vehicle: Klucel (hydroxypropylcellulose) (HPC)
[8] = dose: 400.0 mg/kg/injection, schedule: Q01DX009 (ip), vehicle: Klucel (hydroxypropylcellulose) (HPC)
[9] = dose: 12.5 mg/kg/injection, schedule: Q04DX003 (ip), vehicle: saline
[10] = dose: 25.0 mg/kg/injection, schedule: Q04DX003 (ip), vehicle: saline

Measured: T/C

CCCCCCCCCCCCCCCCCCSC(=N)N
inactive: [1] 101 % of control | [2] 98 % of control | [3] 95 % of control | [4] 100 % of control

CC1(C(=O)O)OCCO1
inactive: [4] 94 % of control | [5] 90 % of control

COc1ccc(/C=N/NC(=O)CNC(=O)NCc2ccccc2)cc1
inactive: [6] 90 % of control | [7] 93 % of control

CN(Cc1ccccc1Cl)C(=S)NC1CCCCC1
inactive: [6] 92 % of control | [7] 93 % of control | [8] 93 % of control

O=C(CCl)N1c2ccccc2Oc2cc3ccccc3cc21
inactive: dose: 100.0 mg/kg/injection, schedule: Q01DX009 (ip), vehicle: saline 100 % of control | dose: 100.0 mg/kg/injection, schedule: Q04DX003 (ip), vehicle: saline 95 % of control | dose: 200.0 mg/kg/injection, schedule: Q01DX009 (ip), vehicle: saline 90 % of control | dose: 200.0 mg/kg/injection, schedule: Q04DX003 (ip), vehicle: saline 101 % of control | dose: 400.0 mg/kg/injection, schedule: Q01DX009 (ip), vehicle: saline 92 % of control | dose: 400.0 mg/kg/injection, schedule: Q04DX003 (ip), vehicle: saline 92 % of control

CCCCNC(C)(C)CS
inactive: dose: 6.25 mg/kg/injection, schedule: Q01DX009 (ip), vehicle: saline 105 % of control | dose: 12.5 mg/kg/injection, schedule: Q01DX009 (ip), vehicle: saline 94 % of control | [9] 100 % of control | dose: 25.0 mg/kg/injection, schedule: Q01DX009 (ip), vehicle: saline 96 % of control | [10] 94 % of control | dose: 50.0 mg/kg/injection, schedule: Q01DX009 (ip), vehicle: saline 102 % of control | dose: 50.0 mg/kg/injection, schedule: Q04DX003 (ip), vehicle: saline 102 % of control | dose: 75.0 mg/kg/injection, schedule: Q01DX009 (ip), vehicle: saline 105 % of control

O=C(c1ccccc1)C1C(C(=O)c2ccccc2)N1Cc1ccccc1 (stereo not given)
inactive: [6] 100 % of control | dose: 100.0 mg/kg/injection, schedule: Q04DX003 (ip), vehicle: Klucel (hydroxypropylcellulose) (HPC) 96 % of control and 93 % of control | [7] 101 % of control | dose: 200.0 mg/kg/injection, schedule: Q04DX003 (ip), vehicle: Klucel (hydroxypropylcellulose) (HPC) 96 % of control and 91 % of control | [8] 97 % of control | dose: 400.0 mg/kg/injection, schedule: Q04DX003 (ip), vehicle: Klucel (hydroxypropylcellulose) (HPC) 93 % of control and 100 % of control

CC(=O)OCC1OC(OC2C(COC(C)=O)OC(Sc3ccccc3)C(OC(C)=O)C2OC(C)=O)C(OC(C)=O)C(OC(C)=O)C1OC(C)=O (stereo not given)
inactive: dose: 3.13 mg/kg/injection, schedule: Q01DX009 (ip), vehicle: saline with Tween-80 89 % of control | [1] 89 % of control | [2] 90 % of control | dose: 25.0 mg/kg/injection, schedule: Q04DX003 (ip), vehicle: saline with Tween-80 95 % of control | [3] 90 % of control | dose: 50.0 mg/kg/injection, schedule: Q04DX003 (ip), vehicle: saline with Tween-80 95 % of control | [4] 88 % of control | dose: 100.0 mg/kg/injection, schedule: Q04DX003 (ip), vehicle: saline with Tween-80 92 % of control | [5] 94 % of control | dose: 200.0 mg/kg/injection, schedule: Q04DX003 (ip), vehicle: saline with Tween-80 91 % of control | dose: 400.0 mg/kg/injection, schedule: Q04DX003 (ip), vehicle: saline with Tween-80 87 % of control

N=C(N)c1ccc(-n2cc3cc(C(=N)N)ccc3n2)cc1
inactive: dose: 6.25 mg/kg/injection, schedule: Q04DX003 (ip), vehicle: saline 96 % of control and 110 % of control | [9] 100 % of control | [10] 106 % of control and 91 % of control
